The target in series [1] is T1, Glucagon-like peptide 1 receptor (Rattus norvegicus) (UniProt P32301).
T1 sequence (whole entry): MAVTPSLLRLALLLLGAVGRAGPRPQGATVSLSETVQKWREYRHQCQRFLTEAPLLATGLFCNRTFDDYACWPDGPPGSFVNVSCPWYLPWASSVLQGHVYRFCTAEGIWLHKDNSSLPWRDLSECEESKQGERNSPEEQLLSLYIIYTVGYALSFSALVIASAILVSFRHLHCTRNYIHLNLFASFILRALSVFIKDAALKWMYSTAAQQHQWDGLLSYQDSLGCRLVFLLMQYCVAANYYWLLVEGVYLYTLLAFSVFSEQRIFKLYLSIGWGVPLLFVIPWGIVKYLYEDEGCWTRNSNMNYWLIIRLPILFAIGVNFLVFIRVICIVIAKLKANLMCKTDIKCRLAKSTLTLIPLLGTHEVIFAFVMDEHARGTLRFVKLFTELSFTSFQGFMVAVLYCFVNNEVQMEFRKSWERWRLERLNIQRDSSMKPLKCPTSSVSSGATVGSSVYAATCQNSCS
The series can be described thus: Reversal of agonist activity at rat GLP1 receptor expressed in HEK293 cells assessed as luciferase activity at 0.05 uM in presence of exendin. The series is classed as functional, cell-based.

For series [2], the target named is T2, Glucagon-like peptide 1 receptor (Rattus norvegicus, UniProt P32301).
T2 sequence (P32301 whole entry): T1 sequence (whole entry)
The experiment in a line: (§1) Displacement of [125I]GLP1 from rat GLP1 receptor expressed in HEK293 cells. It is filed as cell-based.

The target of series [3] is T2, Glucagon-like peptide 1 receptor. The experiment in a line: (§2) Agonist activity at rat GLP1 receptor expressed in HEK293 cells assessed as cAMP release. It is filed as functional, cell-based.
Series [4] is described as follows: Induction of glucose-induced insulin release in Sprague-Dawley rat islets at 100 uM relative to control. It is filed as functional.
Series [5] concerns the target T1, Glucagon-like peptide 1 receptor (Rattus norvegicus). The experiment in a line: Reversal of agonist activity at rat GLP1 receptor expressed in HEK293 cells assessed as luciferase activity at 10 uM in presence of exendin. It is filed as functional, cell-based.
Series [6] has as its target Glucagon-like peptide 1 receptor (Homo sapiens) (UniProt P43220). The experiment in a line: Activity at human GLP1 receptor expressed in HEK293 cells. The series is classed as cell-based.
Series [7] has as its target T1, Glucagon-like peptide 1 receptor (Rattus norvegicus). The series can be described thus: Agonist activity at rat GLP1 receptor expressed in HEK293 cells assessed as luciferase activity upto 10 uM relative to GLP1. The series is classed as functional, cell-based.
Series [8] shares this target. The series can be described thus: Agonist activity at rat GLP1 receptor expressed in HEK293 cells assessed as luciferase activity. The series is classed as functional, cell-based.
Series [9] shares this target. The description is as §1. It is filed as cell-based.
Series [10] has the same target. Described as §2. The series is classed as functional, cell-based.
The species entered for series [11] is Mus musculus. The series can be described thus: Effect on glycemia in C57BL/6-m+/+Leprdb mouse assessed as HbA1c normalization at 2 mg. The series is classed as functional, organism-based.
The species named for series [12] is Mus musculus. The series can be described thus: Effect on glycemia in C57BL/6-m+/+Leprdb mouse assessed as fasting glucose normalization at 1 mg. It is filed as functional, organism-based.
The test system of series [13] is Mus musculus. The experiment in a line: Decrease in HbA1c levels in ip dosed C57BL/6-m+/+Leprdb mouse at 8 mg, ip. It is filed as functional, organism-based.
Series [14] is described as follows: Terminal half life in C57BL/6 mouse at 2 mg, ip. The series is classed as ADME, organism-based. To be noted: in vivo.
The subject of series [15] is Mus musculus. The experiment in a line: Decrease in HbA1c levels in C57BL/6-m+/+Leprdb mouse at 1 mg, ip. It is filed as functional, organism-based.
In series [16] the test system is Mus musculus. The series can be described thus: Reversal of suppression of food intake in po dosed C57BL/6 mouse after 2 hrs in presence of exendin. It is filed as functional, organism-based.
In series [17] the test system is Mus musculus. The experiment in a line: Suppression of food intake in po dosed C57BL/6 mouse after 2 hrs. It is filed as functional.
The test system of series [18] is Mus musculus. The series can be described thus: Reversal of suppression of food intake in ip dosed C57BL/6 mouse after 12 hrs in presence of exendin. The series is classed as functional, organism-based.
For series [19], the system named is Mus musculus. The series can be described thus: Suppression of food intake in ip dosed C57BL/6 mouse after 12 hrs. It is filed as functional.
The species entered for series [20] is Mus musculus. The series can be described thus: Decrease in total cholesterol in C57BL/6-m+/+Leprdb mouse at 2 mg. The series is classed as functional, organism-based.
The test system of series [21] is Mus musculus. The series can be described thus: Decrease in HbA1c levels in C57BL/6-m+/+Leprdb mouse at 2 mg, ip. The series is classed as functional, organism-based.
For series [22], the species on record is Mus musculus. The experiment in a line: Toxicity in C57BL/6 mouse treated upto 6 weeks. It is filed as organism-based. To be noted: in vivo, 1008 h.
In series [23] the test system is Mus musculus. The experiment in a line: Decrease in food intake in ip dosed C57BL/6-m+/+Leprdb mouse. The series is classed as functional. The arrangement: scale not given: the % may be the effect or the level left.
Series [24] is filed under the species Mus musculus. The series can be described thus: Decrease in fasting insulin in C57BL/6-m+/+Leprdb mouse at 1 mg. It is filed as functional, organism-based.
For series [25], the species on record is Mus musculus. The experiment in a line: Effect on glycemia in C57BL/6-m+/+Leprdb mouse assessed as fasting glucose normalization at 2 mg. The series is classed as functional, organism-based.
Series [26] relates to Mus musculus. The series can be described thus: Suppression of food intake in C57BL/6 mouse at 2 mg, ip after 12 hrs. The series is classed as functional.
For series [27], the species on record is Mus musculus. The experiment in a line: Decrease in fasting insulin in C57BL/6-m+/+Leprdb mouse at 2 mg. It is filed as functional, organism-based.
The species entered for series [28] is Mus musculus. The series can be described thus: Effect on glycemia in C57BL/6-m+/+Leprdb mouse assessed as HbA1c normalization at 1 mg. The series is classed as functional, organism-based.
Series [29] is filed under the species Mus musculus. The series can be described thus: Decrease in high density lipoprotein in C57BL/6-m+/+Leprdb mouse at 2 mg. It is filed as functional, organism-based.
The species named for series [30] is Mus musculus. The series can be described thus: Effect on glucose excursion in C57BL/6-m+/+Leprdb mouse assessed as glucose tolerance normalization at 2 mg. It is filed as functional, organism-based.
Another series has as its system HEK293. The experiment in a line: Toxicity in HEK293 cells upto 300 uM by MTT assay. The series is classed as cell-based. To be noted: human.
Series [31] in a line: Induction of glucose-induced insulin release in Sprague-Dawley rat islets at 10 uM relative to control. The series is classed as functional.

Activity calls are given as the source filed them. No cut-off for these calls is given here.

Sequence of Glucagon-like peptide 1 receptor (Homo sapiens) (P43220 whole entry): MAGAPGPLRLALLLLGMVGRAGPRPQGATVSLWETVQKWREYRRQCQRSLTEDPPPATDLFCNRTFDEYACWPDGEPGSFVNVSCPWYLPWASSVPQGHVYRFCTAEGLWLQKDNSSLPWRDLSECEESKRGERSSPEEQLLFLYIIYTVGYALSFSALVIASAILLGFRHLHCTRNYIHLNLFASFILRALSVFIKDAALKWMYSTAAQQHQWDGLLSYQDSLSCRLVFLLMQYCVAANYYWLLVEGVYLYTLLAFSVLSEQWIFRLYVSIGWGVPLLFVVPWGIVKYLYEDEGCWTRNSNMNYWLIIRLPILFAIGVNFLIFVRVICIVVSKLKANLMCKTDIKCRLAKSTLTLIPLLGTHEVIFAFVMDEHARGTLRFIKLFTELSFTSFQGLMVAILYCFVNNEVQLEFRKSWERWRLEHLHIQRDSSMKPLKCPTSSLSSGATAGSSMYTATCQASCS

As usually defined, the Ki is the equilibrium dissociation constant of an inhibitor or competing ligand from its target. One may read the EC50 as the midpoint of the concentration-response curve. Take `COc1cc(C2C(NC(=O)c3ccc(NC(=O)C4CCCC4)cc3)(C(=O)O)C(c3ccc(OC(=O)c4cccs4)c(OC)c3)C2(NC(=O)c2ccc(NC(=O)C3CCCC3)cc2)C(=O)O)ccc1OC(=O)c1cccs1` (stereo not drawn): the outcome in series [1] and in series [5] was Active. Moreover, the Ki in series [2] was 287 nM. Besides, the EC50 in [3] amounted to 1080 nM. Also, the “fold change (FC)” value in [4] was 2.6. Moreover, the result in series [6] was inactive. Also, in series [7], the Activity amounted to 37%.

On to `CCOc1cc(/C=C2\N=C(c3ccc(NC(C)=O)cc3)OC2=O)ccc1OC(=O)c1cccs1`, for which the result in series [8], in series [9] and in series [10] was Active.

By half-life is commonly meant the time in which the quantity being followed falls by half. With `COc1cc(C2C(NC(=O)c3ccc(NC(=O)OC(C)(C)C)cc3)(C(=O)O)C(c3ccc(OC(=O)c4cccs4)c(OC)c3)C2(NC(=O)c2ccc(NC(=O)OC(C)(C)C)cc2)C(=O)O)ccc1OC(=O)c1cccs1` (stereo not drawn), the outcome (in the series listed under Mus musculus [11]; in the series filed under Mus musculus [12]; in the series on Mus musculus [13]; in [1]; in the series with Mus musculus [15]; in the series with Mus musculus [16]) was Active. Moreover, the result (in the series with Mus musculus [18]; in the series listed under Mus musculus [20]; in the series on Mus musculus [21]; in the series listed under Mus musculus [24]; in the series filed under Mus musculus [25]; in [5]) was Active. Further, the result (in the series filed under Mus musculus [27]; in the series listed under Mus musculus [28]; in the series filed under Mus musculus [29]; in the series listed under Mus musculus [30]; in series [7]) was Active. This compound had a half-life in series [14] of 7.5 h. For the same compound, the ED50 with Mus musculus [17] worked out at 0.53 mg; in the series on Mus musculus [19], 1.57 mg. This compound came in with a Ki in series [2] of 1470 nM. The EC50 in series [3] amounted to 2730 nM. Moreover, the Activity entry in the series listed under Mus musculus [22] is “Non-toxic”; in the series on Mus musculus [23], 24.9%; with Mus musculus [26], 54%; with HEK293 it was “Non-toxic”. Moreover, in series [6], the outcome was inactive. For the same compound, the “fold change (FC)” value in series [31] was 4.5.

Values taken from ChEMBL document CHEMBL1156434, “A nonpeptidic agonist of glucagon-like peptide 1 receptors with efficacy in diabetic db/db mice” (Proc Natl Acad Sci U S A, 2007).
